Experiment [1] relates to immortalized megakaryocyte line (SeV2-MKCL). Put plainly: Platelet production: static culturing of immortalized megakaryocyte line. The following applies: compound final concentration 0.1 μM, static culturing 6 to 7 days, control (DMSO) set to 1; platelets = CD41, CD42b and CD42a-positive cells. It is filed as cell-based. Here is the method: Test Example 2 (Platelet Production: Static Culturing)
The immortalized megakaryocyte line (SeV2-MKCL) obtained according to the method described in WO 2016/204256 was washed twice with D-PBS(−) and then cultured in medium not containing doxycycline to terminate forced expression. Culturing was implemented by seeding the cells at 1 mL/well in a 24-well plate (#662160 (Greiner Rio-One)) at a seeding density of 1×10^5 cells/mL followed by static culturing in the medium indicated below.
The medium was obtained by adding the following components to IMDM serving as the basal medium (concentrations indicate final concentrations).
Culturing was implemented under conditions of 37° C. and 5% CO2. At the same time, the compound of the present invention (final concentration 0.1 μM) or DMSO (control) was added and cultured for 6 to 7 days. Thereafter, the number of platelets (CD41, CD42b, and CD42a-positive cells) was measured. The measurement method was as shown below. The same procedure was performed with the control.
A portion of the culture supernatant was harvested 6 to 7 days after culturing to terminate gene expression, and suspended with the following antibodies to stain them. eFluor 450-labeled anti-CD42a antibody (#48-0428-42 (eBioscience)) PE-labeled anti-CD42b antibody (#303906 (BioLegend)) APC-labeled anti-CD41 antibody (#303710 (BioLegend)) The number of platelets was counted using FACSVerse manufactured by BD 30 minutes after the stain reaction. In the measurement of the number of platelets, the number of cells was corrected using Flow-count beads (#7547053 (Beckman Coulter)).
The number of platelets produced from one megakaryocyte cell was calculated based on the number of platelets in the sample obtained by the FACS measurement, and the result was defined as platelet production efficiency (PLT/MK) and used for evaluation of drug efficacy of the compound. In addition, the specific activity at the time when the platelet production efficiency of the control was set to 1 was indicated as fold increase.

Experiment [2] has as its target T1, aryl hydrocarbon receptor (AhR) (Homo sapiens, UniProt P35869).
T1 construct: DRE-Luc HepG2 cells subcultured in a 225 cm^2 flask; endogenous in cells; host or cells: HepG2 (ATCC), stably transfected with the reporter hCYP1A1/pGL4.27 (DRE-Luc HepG2)
T1 sequence (P35869 11-848): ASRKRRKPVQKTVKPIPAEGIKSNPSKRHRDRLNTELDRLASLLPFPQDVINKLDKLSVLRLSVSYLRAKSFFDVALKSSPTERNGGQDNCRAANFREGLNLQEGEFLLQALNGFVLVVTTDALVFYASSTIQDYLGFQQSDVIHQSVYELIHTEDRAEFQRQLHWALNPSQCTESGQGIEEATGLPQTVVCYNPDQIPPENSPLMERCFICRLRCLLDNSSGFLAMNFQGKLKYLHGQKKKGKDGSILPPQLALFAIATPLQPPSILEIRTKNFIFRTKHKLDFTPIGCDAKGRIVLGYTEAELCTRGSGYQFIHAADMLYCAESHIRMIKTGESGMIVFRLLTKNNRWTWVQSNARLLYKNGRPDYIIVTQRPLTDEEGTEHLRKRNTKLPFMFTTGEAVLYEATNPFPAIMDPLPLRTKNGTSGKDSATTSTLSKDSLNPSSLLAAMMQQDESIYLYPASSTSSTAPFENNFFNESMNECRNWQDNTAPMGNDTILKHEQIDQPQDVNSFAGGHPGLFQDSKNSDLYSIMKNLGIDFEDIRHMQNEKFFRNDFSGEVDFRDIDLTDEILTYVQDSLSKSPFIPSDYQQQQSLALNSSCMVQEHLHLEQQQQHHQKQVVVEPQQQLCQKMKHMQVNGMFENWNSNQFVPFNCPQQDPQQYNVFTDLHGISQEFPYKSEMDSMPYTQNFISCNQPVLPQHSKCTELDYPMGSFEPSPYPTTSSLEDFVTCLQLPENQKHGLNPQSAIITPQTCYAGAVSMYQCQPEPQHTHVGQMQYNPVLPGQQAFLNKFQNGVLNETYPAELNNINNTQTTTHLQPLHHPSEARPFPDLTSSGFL
Put plainly: AhR reporter gene assay (aryl hydrocarbon receptor antagonist activity, DRE-Luc HepG2 cells, TCDD-stimulated luciferase). It is filed as cell-based. As to the method: Test Example 1 (Aryl Hydrocarbon Receptor Antagonist Activity)
An expression vector, hCYP1A1/pGL4.27 was introduced into HepG2 cells (derived from American Type Culture Collection (ATCC)) that were seeded in 6-well plates (#3810-006 (Iwaki)) at 1.2×10^6 cells/well, using Lipofectamine 3000 (#100022050 (Invitrogen)). Referring to Garrion P M et al., Fundam Appl Toxicol, 30, 194 (1996), the vector hCYP1A1/pGL4.27 incorporated the human CYP1A1 promotor region including dioxin responsive element (DRE) region of the AhR binding region into the XhoI-BglII restriction enzyme site of pGL4.27 (#E8451 (Promega)). After 24 hours, medium-1 was replaced, and after 48 hours, the medium-1 containing hygromycin B (200 to 1000 μg/mL) was subjected to drug treatment. Culturing using the medium containing hygromycin B was continued for about 1 month to clone 24 clones showing drug resistance. A cell line showing high reporter activity was selected (DRE-Luc HepG2) from drug resistant lines using as an indicator luciferase activity (Dual-Glo Luciferase substrate, #E297A (Promega)) relative to an AhR agonist, 2,3,7,8-tetrachlorodibenzo-p-dioxin (TCDD) (#ED-901-B (CIL.)).
DRE-Luc HepG2 cells subcultured in a 225 cm^2 flask (#11-0005 (Iwaki)) were washed with PBS (#1419-144 (Gibco), Lot: 1896207), and thereto was added 8 mL of Trypsin-EDTA (0.05%) (#25300-054 (Gibco)). Thereafter, an excessive liquid was removed from the mixture, and the cells were stood at room temperature for 5 minutes. Thereto was added 10 mL of medium-2, the cells were recovered through a cell strainer (#352350 (Falcon), 70 μm), and the number of cells were then counted using a hemocytometer. A cell suspension was prepared at 3×10^5 cells/mL, 100 μL/well of the cell suspension was seeded into a 96-well white plate (#136101, F96 Microwell (Nunc)), and the cells were then cultured in a CO2 incubator (5% CO2, 37° C.). After 24 hours, the medium was aspirated, and thereto was added 100 μL of an assay medium solution including the compound of the present invention, and the cells were cultured in the CO2 incubator (5% CO2, 37° C.). After 24 hours, 11 μL of an assay medium solution including 5×10^−10 M TCDD (#ED-901-B (CIL.)) was added thereto and the cells were cultured in the CO2 incubator (5% CO2, 37° C.). After 24 hours, 50 μL of a reaction substrate (#E253B, Steady-Glo Luciferase substrate (Promega)) for Firefly Luciferase enzyme reaction was added to each well, and after 5 minute-shaking, the light emission intensity was measured with Wallac ARVO 1420sx (PerkinElmer).
(In a reporter assay the amount or activity of a reporter protein is the signal.)

Broadly, the IC50 is the concentration at which inhibition is half-maximal. Low readings indicate higher potency, high ones lower potency. Consider `CC1(C)COc2nc3c(NCCc4ccc(O)c(-c5cccc(F)c5)c4)nc(-c4cncc(F)c4)nc3n21` [Example 3], for which the “Static (vs veh): fold increase of platelet production efficiency (PLT/MK)” value (shortened to “Static (vs veh): fold increase”) in experiment [1] worked out at 6.8. In experiment [2], it took 2.9 nM to reach half-maximal inhibition (IC50).
Turning to `Cc1cccc(-c2cc(CCNc3nc(-c4cncc(F)c4)nc4c3nc3n4C(C)(C)CO3)ccc2O)c1` [Example 14], the “Static (vs veh): fold increase” value in experiment [1] amounted to 7.9. In experiment [2], this compound showed a half-maximal inhibitory concentration (IC50) of 11 nM.
For the compound `CC1(C)COc2nc3c(NCCc4c[nH]c5ccccc45)nc(-c4ccc(F)cc4)nc3n21` [Example 114], the “Static (vs veh): fold increase” value in experiment [1] was determined as 2.2.
In the case of `CC1(C)COc2nc3c(NCCc4ccc(O)c(-c5ccccc5)c4)nc(-c4cncc(F)c4)nc3n21` [Example 1, 4-[2-[[2-(5-fluoropyridin-3-yl)-8,8-dimethyl-7H-purino[8,9-b][1,3]oxazol-4-yl]amino]ethyl]J-2-phenylphenol], in experiment [1], the “Static (vs veh): fold increase” value was 6.5. In experiment [2], this compound yielded an IC50 of 4.4 nM.
Take `Fc1cncc(-c2nc(NCCc3c[nH]c4ccccc34)c3nc4n(c3n2)CCS4)c1` [Example 105]: the “Static (vs veh): fold increase” value in experiment [1] is 8.2.
The same measure, in the same setting: the figure for `Cc1cncc(-c2nc(NCCc3c[nH]c4ccccc34)c3nc4n(c3n2)C(C)(C)CO4)c1` [Example 83] is 5.8; for `Fc1cncc(-c2nc(NCCc3c[nH]c4ccccc34)c3nc4n(c3n2)CCCCS4)c1` [Example 107] it is 7.9; for `CC1(C)COc2nc3c(NCCc4ccc(O)c(-c5ccc(O)cc5)c4)nc(-c4cncc(F)c4)nc3n21` [Example 19, 4-[2-[[2-(5-fluoropyridin-3-yl)-8,8-dimethyl-7H-purino[8,9-b][1,3]oxazol-4-yl]amino]ethyl]-2-(4-hydroxyphenyl)phenol] it is 2.8.
As to `CC1(C)CSc2nc3c(NCCc4ccc(O)cc4)nc(-c4cncc(F)c4)nc3n21` [Example 97], in experiment [2], the midpoint of inhibition, the IC50, lay at 19 nM.
For the compound `CC1(C)CCOc2nc3c(NCCc4c[nH]c5ccccc45)nc(-c4cncc(F)c4)nc3n21` [Example 89], the “Static (vs veh): fold increase” value in experiment [1] is listed as 5.0.
The same measure, in the same setting: the figure for `CC1(C)CSc2nc3c(NCCc4c[nH]c5ccccc45)nc(-c4cncc(F)c4)nc3n21` [Example 95] is 2.4; for `CC1(C)COc2nc3c(NCCc4ccc5[nH]ccc5c4)nc(-c4cncc(F)c4)nc3n21` [Example 103] it is 3.1.
In experiment [2], `Oc1ccc(CCNc2nc(-c3cncc(F)c3)nc3c2nc2n3CCS2)cc1-c1ccccc1F` [Example 142] displayed an IC50 of 0.89 nM.
For the compound `C[C@@H]1CSc2nc3c(NCCc4c[nH]c5ccccc45)nc(-c4cncc(F)c4)nc3n21` [Example 102], in experiment [1], the “Static (vs veh): fold increase” value amounted to 4.5.
Consider `CC1(C)COc2nc3c(NCCc4c[nH]c5ccccc45)nc(-c4ccccc4F)nc3n21` [Example 113], for which the “Static (vs veh): fold increase” value in experiment [1] is recorded as 2.5.
The same measure, in the same setting: the figure for `C[C@H]1CSc2nc3c(NCCc4c[nH]c5ccccc45)nc(-c4cncc(F)c4)nc3n21` [Example 106] is 6.9.
For `Oc1ccc(CCNc2nc(-c3cncc(F)c3)nc3c2nc2n3CCCS2)cc1-c1ccccc1F` [Example 145], inhibition in experiment [2] was half-maximal at 1.3 nM (IC50).
As to `CC1(C)CSc2nc3c(NCCc4ccc(O)c(-c5cncc(F)c5)c4)nc(-c4cncc(F)c4)nc3n21` [Example 70], the half-maximal inhibitory concentration (IC50) in experiment [2] came to 4.6 nM. This IC50 lies about 3.5-fold higher than the previous one.
On to `CC1(C)COc2nc3c(NCCc4ccc(O)c(-c5cncc(C#N)c5)c4)nc(-c4cncc(F)c4)nc3n21` [Example 75], for which, in experiment [1], the “Static (vs veh): fold increase” value came to 2.7.
The same measure, in the same setting: to `CC1(C)COc2nc3c(NCCc4c[nH]c5ccccc45)nc(-c4ccnc(F)c4)nc3n21` [Example 100] belongs 3.5.
Consider `Fc1cncc(-c2nc(NCCc3c[nH]c4ccccc34)c3nc4n(c3n2)CCCO4)c1` [Example 84], for which, in experiment [1], the “Static (vs veh): fold increase” value stood at 13.
Still for that read-out and setting: the figure for `Cc1[nH]c2ccccc2c1CCNc1nc(-c2cncc(F)c2)nc2c1nc1n2C(C)(C)CO1` [Example 104] is 4.6; for `Cc1cc(CCNc2nc(-c3cncc(F)c3)nc3c2nc2n3C(C)(C)CO2)ccc1O` [Example 51] it is 2.6.
Same read-out and setting: the figure for `CC1(C)COc2nc3c(NCCc4ccc(O)cc4)nc(-c4cncc(F)c4)nc3n21` [Example 80] is 3.4.
On to `Oc1ccc(CCNc2nc(-c3cncc(F)c3)nc3c2nc2n3CCCO2)cc1-c1ccccc1F` [Example 144], for which the IC50 in experiment [2] stood at 4.3 nM.
In the case of `CC1(C)COc2nc3c(NCCc4c[nH]c5ccccc45)nc(-c4cncc(F)c4)nc3n21` [Example 82], the “Static (vs veh): fold increase” value in experiment [1] came to 5.0.
As to `Oc1ccc(CCNc2nc(-c3cncc(F)c3)nc3c2nc2n3CCCCS2)cc1-c1ccccc1F` [Example 143], half-maximal inhibition in experiment [2] (IC50) required 0.6 nM.
Regarding `CC1(C)COc2nc3c(NCCc4c[nH]c5ccccc45)nc(-c4ccccc4)nc3n21` [Example 116], in experiment [1], the “Static (vs veh): fold increase” value is recorded as 2.5.
Same read-out and setting: the figure for `CC1(C)CCOc2nc3c(NCCc4ccc(O)cc4)nc(-c4cncc(F)c4)nc3n21` [Example 90] is 2.6; for `CC1(C)COc2nc3c(NCCc4c[nH]c5ccccc45)nc(-c4ccc(F)c(F)c4)nc3n21` [Example 88] it is 3.1.

Source of the values: patent US11932657B2, “Heterocyclic compound” (priority 2018, dated 2024).
